In brackets after ≈: the same amount, converted by molar mass. Several values for one entry are separate records, joined by “and”; a condition that tells them apart may be missing. Equal values may be shown once. Read-outs that look alike come from different tables or passages of the source.
Key:
M. bovis BCG [1] = assay: microbe, parasite or virus in culture; type: cell-based, Mycobacterium bovis BCG
Mtb H37Rv = assay: MIC by broth microdilution against Mtb H37Rv; type: cell-based, Mycobacterium tuberculosis; conditions: Mycobacterium tuberculosis, H37RV, 120 h
M. bovis BCG [2] = type: cell-based, Mycobacterium bovis BCG; conditions: 0.5x to 4x MIC90BCG
[3] = test system: Mab bolletii CCUG 50184-T; assay: MIC against Mab bolletii CCUG 50184-T; type: cell-based, Mycobacterium abscessus subsp. bolletii; conditions: Mycobacteroides abscessus; for MIC50: CCUG50184, 72 h, 3 days
M. bovis BCG [4] = type: cell-based, Mycobacterium bovis BCG; conditions: exponential phase M. bovis BCG, 5 days
cat papillary muscle = conditions: cited from earlier work
clinical isolates of Mab = assay: MIC50 against Mab clinical isolates; type: cell-based, Mycobacterium abscessus; conditions: Mycobacteroides abscessus
M. bovis BCG [5] = type: cell-based, Mycobacterium bovis BCG; conditions: 2xMIC90BCG
M. bovis BCG [6] = type: cell-based, Mycobacterium bovis BCG; conditions: luminescence normalized against CFU
M. bovis BCG [7] = type: cell-based, Mycobacterium bovis BCG; conditions: 2x MIC90 (19 μg/mL)
M. bovis BCG [8] = conditions: 2x MIC90 over 24 h
Mab abscessus = assay: Time-kill kinetics, Mab abscessus; type: cell-based, Mycobacterium abscessus subsp. abscessus; conditions: 2xMIC90 (170 μM, 89 μg/mL)
Vero E6 = assay: Cytotoxicity in Vero E6 cells; type: cell-based, African green monkey; conditions: growth suppressed by 50% vs untreated
In short: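 Cells seeded at 50,000/well, allowed to adhere overnight in DMEM at 37 °C/5% CO2, then exposed 48 h to compound at a final 0.5% v/v DMSO. Viability read by MTS-type reagent (3 h, absorbance 490 nm), corrected for compound and vehicle blanks, and normalized to untreated cells. IC50 from sigmoidal fit of viability versus log concentration, at least 3 determinations.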

Mab abscessus ATCC 19977 = assay: MIC against Mab abscessus ATCC 19977; type: cell-based, Mycobacterium abscessus subsp. abscessus; conditions: Mycobacteroides abscessus; for MIC50: ATCC19977, 72 h, 3 days
M. smegmatis mc2155 = assay: MIC against M. smegmatis mc2155; type: cell-based, Mycobacterium smegmatis; conditions: Mycolicibacterium smegmatis
[9] = test system: nonreplicating M. bovis BCG; type: cell-based, Mycobacterium bovis BCG; conditions: 5 days, Wayne model
M. bovis BCG-pclgR-RFP = type: cell-based, Mycobacterium bovis BCG; conditions: 0.25x – 2x MIC90 (controls 10 μM), 24 h
M. bovis BCG [10] = type: cell-based, Mycobacterium bovis BCG; conditions: 2x MIC90BCG, 6 h time point, cultures still viable
M. bovis BCG [11] = type: cell-based, Mycobacterium bovis BCG; conditions: 24 h
M. bovis BCG [12] = type: cell-based, Mycobacterium bovis BCG; conditions: PhA2 2x–4x MIC90BCG, TDZ 80 μM, 24 h
[13] = test system: Mab massiliense CCUG 48898-T; assay: MIC against Mab massiliense CCUG 48898-T; type: cell-based, Mycobacterium abscessus subsp. massiliense; conditions: Mycobacteroides abscessus; for MIC50: CCUG48898, 72 h, 3 days
[14] = 7H9 medium (first value of cell)
[15] = CA-MHB medium (second value of cell)

## CCCCCCCCC(C#N)(CCCN(C)CCc1ccc(OC)c(OC)c1)c1ccc(OC)c(OC)c1 (centres unmarked) [PhA2]
M. bovis BCG [1]; M. bovis BCG
  MIC90 BCG: 9 µg/mL (≈ 17.2 µM)
M. bovis BCG [1]; M. bovis BCG, broth dilution, growth reduced by 50% vs untreated
  MIC50: 10 µM (≈ 5.25 µg/mL)
M. bovis BCG [1]; Mycobacterium tuberculosis variant bovis BCG, BCG, 120 h, read-out: MIC50 BCG With Glycerol, 7H9 broth with glycerol, 5 days
  MIC50: 10 µM (≈ 5.25 µg/mL)
M. bovis BCG [1]; Mycobacterium tuberculosis variant bovis BCG, BCG, 120 h, read-out: MIC50 BCG Without Glycerol, 7H9 broth without glycerol, 5 days
  MIC50: 22 µM (≈ 11.5 µg/mL)
M. bovis BCG [1]; Mycobacterium tuberculosis variant bovis BCG, BCG, M. bovis BCG, broth dilution, growth reduced by 50% vs untreated
  MIC50: 10 to 16 µM (≈ 5.25 to 8.4 µg/mL)
M. bovis BCG [1]; Mycobacterium tuberculosis variant bovis BCG, BCG, M. bovis BCG, broth dilution, growth reduced by 90% vs untreated
  MIC90: 18 µM
M. bovis BCG [1]; Mycobacterium tuberculosis variant bovis BCG, BCG, read-out: M. bovis BCG MIC50 (Table S4)
  MIC50: 10 µM (≈ 5.25 µg/mL)
M. bovis BCG [1]; Mycobacterium tuberculosis variant bovis BCG, BCG, read-out: M. bovis BCG MIC90 (Table S4)
  MIC90: 18 µM
M. bovis BCG [1]; Mycobacterium tuberculosis variant bovis BCG, BCG, read-out: MIC90 (Table S1), M. bovis BCG, broth dilution
  MIC90: 18 µM
M. bovis BCG [1]; Mycobacterium tuberculosis variant bovis BCG, BCG, read-out: MIC90 BCG, M. bovis BCG
  MIC90: 9.4 µg/mL
Mtb H37Rv; read-out: MIC50 Mtb H37Rv
  MIC50: 17 µM (≈ 8.92 µg/mL)
Mtb H37Rv; second value of cell MIC50/MIC90, incubation 5 days, read-out: MIC90 Mtb H37Rv
  MIC90: 25 µM (≈ 13.1 µg/mL)
M. bovis BCG [2]
  formazan formation from MTS: dose dependent reduction in formazan
[3]; CCUG50184, 7H9 broth (first value)
  MIC90: 95 µM (≈ 49.9 µg/mL)
[3]; [14]
  MIC50: 62 µM (≈ 32.5 µg/mL)
[3]; [15]
  MIC50: 16 µM (≈ 8.4 µg/mL)
[3]; CCUG50184, camH broth (second value)
  MIC90: 27 µM (≈ 14.2 µg/mL)
M. bovis BCG [4]
  MBC99.9 (10^3-fold kill): 2 x MIC90
Cat papillary muscle
  ED50 (concentration to reduce maximal contractility of the papillary muscle by 50%): 130 µM
Clinical isolates of Mab; read-out: MIC50 seven Mab clinical isolates
  MIC50: 22 to 39 µM
Clinical isolates of Mab; Mab clinical isolate M9, 7H9 broth, read-out: MIC50 M9
  MIC50: 26.5 µM
Clinical isolates of Mab; Mab clinical isolate M111, 7H9 broth, read-out: MIC50 M111
  MIC50: 24 µM
Clinical isolates of Mab; Mab clinical isolate M232, 7H9 broth, read-out: MIC50 M232
  MIC50: 22 µM
Clinical isolates of Mab; Mab clinical isolate M337, 7H9 broth, read-out: MIC50 M337
  MIC50: 25 µM
Clinical isolates of Mab; Mab clinical isolate M404, 7H9 broth, read-out: MIC50 M404
  MIC50: 26.5 µM
Clinical isolates of Mab; Mab clinical isolate M422, 7H9 broth, read-out: MIC50 M422
  MIC50: 23 µM
Clinical isolates of Mab; Mab clinical isolate M506, 7H9 broth, read-out: MIC50 M506
  MIC50: 23.5 µM
Clinical isolates of Mab; range over isolates, read-out: MIC50 seven Mab clinical isolates
  MIC50: 12 to 21 µg/mL
M. bovis BCG [5]; 21-day time point
  reduction of CFUs: 10^5 fold
M. bovis BCG [5]; 21 days
  regrowth in time-kill curve: no rebound in growth
M. bovis BCG [6]; 2x MIC90, 12 h
  ATP level: 73%
M. bovis BCG [6]; 2x MIC90, 48 h
  ATP level: 27%
M. bovis BCG [7]
  oxygen consumption rate: uptake was reduced to the basal level
M. bovis BCG [8]
  membrane permeabilization: induced membrane permeabilization
Mab abscessus
  reduction of CFUs: 10^5 fold
Vero E6; 48 h
  IC50: 28 µM
Vero E6; Chlorocebus sabaeus, Vero C1008, 48 h
  IC50: 28 to 29 µM
Mab abscessus ATCC 19977; ATCC19977, 7H9 broth (first value), read-out: MIC90 Mab abscessus ATCC 19977
  MIC90: 85 µM (≈ 44.6 µg/mL)
Mab abscessus ATCC 19977; [14]
  MIC50: 54 µM (≈ 28.3 µg/mL)
Mab abscessus ATCC 19977; [15]
  MIC50: 19 µM (≈ 9.97 µg/mL)
Mab abscessus ATCC 19977; ATCC19977, Mab abscessus, read-out: MIC90 abscessus
  MIC90: 85 µM and 45 µg/mL
Mab abscessus ATCC 19977; ATCC19977, camH broth (second value), read-out: MIC90 Mab abscessus ATCC 19977
  MIC90: 26 µM (≈ 13.6 µg/mL)
M. smegmatis mc2155; MC2155, 24 h, incubation 1 day, read-out: M. smegmatis mc2155 MIC50 (Table S4)
  MIC50: 41 µM (≈ 21.5 µg/mL)
M. smegmatis mc2155; MC2155, 24 h, incubation 1 day, read-out: M. smegmatis mc2155 MIC90 (Table S4)
  MIC90: 58 µM (≈ 30.4 µg/mL)
M. smegmatis mc2155; MC2155, read-out: MIC90 M. smegmatis
  MIC90: 52.5 µM (≈ 27.5 µg/mL)
[9]; 2x MIC90BCG
  kill of hypoxic M. bovis BCG: resisted killing
[9]; 4x MIC90BCG
  kill of hypoxic M. bovis BCG: 10^3 fold
M. bovis BCG-pclgR-RFP
  induction of pclgR promoter activity: induced promoter activity in a dose dependent manner
M. bovis BCG [10]
  membrane depolarization: depolarization was evident
M. bovis BCG [11]; 0.5x and 1x MIC90BCG
  methylene blue decolorization (O2 uptake): Decolorization (active O2 uptake)
M. bovis BCG [11]; 2x and 4x MIC90BCG
  methylene blue decolorization (O2 uptake): No decolorization
M. bovis BCG [12]
  NADH/NAD+ ratio: higher ratios
[13]; CCUG48898, 7H9 broth (first value)
  MIC90: 91 µM (≈ 47.8 µg/mL)
[13]; [14]
  MIC50: 61 µM (≈ 32 µg/mL)
[13]; [15]
  MIC50: 11 µM (≈ 5.77 µg/mL)
[13]; CCUG48898, camH broth (second value)
  MIC90: 28 µM (≈ 14.7 µg/mL)

Source: PMC12281142, “A potent phenylalkylamine disrupts mycobacterial membrane bioenergetics and augments bactericidal activity of bedaquiline” (iScience, 2025)
